32 compounds from patent US11492348B2, “Tri-substituted aryl and heteroaryl derivatives as modulators of PI3-kinase and autophagy pathways” (Neuropore Therapies, Inc., priority 2018, dated 2022) can be followed below.

In general, IC50 refers to the concentration that gives 50% inhibition.

The structures appear in SMILES notation.

Chain of PI3Kα (P42336 whole entry): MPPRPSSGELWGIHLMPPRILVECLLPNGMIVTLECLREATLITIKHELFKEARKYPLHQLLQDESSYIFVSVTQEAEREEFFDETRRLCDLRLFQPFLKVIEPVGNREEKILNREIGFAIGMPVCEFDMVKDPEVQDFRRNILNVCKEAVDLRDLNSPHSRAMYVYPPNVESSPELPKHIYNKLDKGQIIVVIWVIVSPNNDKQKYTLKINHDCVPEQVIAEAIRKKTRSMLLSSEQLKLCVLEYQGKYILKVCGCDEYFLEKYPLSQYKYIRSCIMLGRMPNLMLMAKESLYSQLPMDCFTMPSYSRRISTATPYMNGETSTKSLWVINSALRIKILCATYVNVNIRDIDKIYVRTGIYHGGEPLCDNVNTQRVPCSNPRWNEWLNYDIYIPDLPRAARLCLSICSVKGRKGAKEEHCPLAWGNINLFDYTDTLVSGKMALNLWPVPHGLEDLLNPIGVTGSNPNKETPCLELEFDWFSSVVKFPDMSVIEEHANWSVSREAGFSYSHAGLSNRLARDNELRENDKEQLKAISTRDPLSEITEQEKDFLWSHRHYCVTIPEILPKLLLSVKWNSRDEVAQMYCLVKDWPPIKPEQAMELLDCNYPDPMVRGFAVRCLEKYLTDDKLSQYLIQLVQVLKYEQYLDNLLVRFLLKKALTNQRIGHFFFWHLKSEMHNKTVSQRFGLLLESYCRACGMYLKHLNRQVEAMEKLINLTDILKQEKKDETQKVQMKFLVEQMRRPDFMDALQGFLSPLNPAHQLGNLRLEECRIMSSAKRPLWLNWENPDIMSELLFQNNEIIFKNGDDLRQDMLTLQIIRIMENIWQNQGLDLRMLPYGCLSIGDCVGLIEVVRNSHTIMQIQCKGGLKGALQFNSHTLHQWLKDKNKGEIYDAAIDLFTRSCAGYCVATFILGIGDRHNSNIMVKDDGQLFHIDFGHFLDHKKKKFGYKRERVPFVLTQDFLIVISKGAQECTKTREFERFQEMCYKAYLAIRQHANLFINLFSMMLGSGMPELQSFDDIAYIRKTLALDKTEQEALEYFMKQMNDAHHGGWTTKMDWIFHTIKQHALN
Chain of PI3Kα (P27986 whole entry partner): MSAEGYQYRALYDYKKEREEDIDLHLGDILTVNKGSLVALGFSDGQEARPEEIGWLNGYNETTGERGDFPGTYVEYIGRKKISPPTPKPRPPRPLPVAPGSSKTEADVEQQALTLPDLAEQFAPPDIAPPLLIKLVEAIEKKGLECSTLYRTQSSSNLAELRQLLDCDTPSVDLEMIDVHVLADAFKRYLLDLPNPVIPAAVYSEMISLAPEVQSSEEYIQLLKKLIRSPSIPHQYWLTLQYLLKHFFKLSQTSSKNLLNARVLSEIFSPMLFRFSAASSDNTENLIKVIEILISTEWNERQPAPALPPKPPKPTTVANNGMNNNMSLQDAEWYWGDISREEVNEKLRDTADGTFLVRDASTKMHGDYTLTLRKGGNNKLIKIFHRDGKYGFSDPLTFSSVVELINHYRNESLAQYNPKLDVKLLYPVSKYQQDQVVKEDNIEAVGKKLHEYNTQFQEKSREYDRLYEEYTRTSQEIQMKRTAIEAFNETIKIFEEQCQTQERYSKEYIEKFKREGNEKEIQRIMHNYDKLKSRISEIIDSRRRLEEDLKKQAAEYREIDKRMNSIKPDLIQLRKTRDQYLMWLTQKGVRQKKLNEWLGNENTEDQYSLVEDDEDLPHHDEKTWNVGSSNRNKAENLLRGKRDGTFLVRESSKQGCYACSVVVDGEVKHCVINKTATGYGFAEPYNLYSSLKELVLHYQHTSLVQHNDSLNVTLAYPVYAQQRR

One test addresses PI3Kα (Homo sapiens (Human), UniProt P42336). Kind of test: Inhibition of PI3Kα (ADP-Glo kinase activity assay, ATP to ADP conversion). The test is classed as biochemical. The following applies: 25 μM PIP2:PS, 60 μM ATP, 30 min reaction, luminescence. The procedure:
Quantification of ATP to ADP conversion as a measure of PI3Kα activity. Active PI3Kα (Life Technologies), in the presence or absence of PI3Kα inhibitor, was reacted with PIP2:PS (Life Technologies), a substrate specifically optimized for use with Class I PI3 kinases, and ultrapure ATP (Promega). The conversion of ATP to ADP by PI3Kα was measured as luminescence signal via Promega ADP-Glo kinase activity assay. Assay was validated using published PI3Kα inhibitors LY294002, PI-103, BYL719, GDC0198 and also DMSO vehicle control.
Compounds were prepared at 100× final concentration as a 12-point, 1:3 serial-dilution in DMSO series, with DMSO control as 12th point. Compound was then diluted in (25 mM HEPES pH 7.5, 1 mM EGTA, 0.3% CHAPS) prior to addition to PI3Kα. Active PI3Kα diluted to 0.24 ng/μL (1.1 nM) in (50 mM HEPES pH 7.5, 6 mM MgCl2, 1 mM EGTA, 200 mM NaCl, 0.03% CHAPS, 8 mM DTT) was incubated with compound for 0 hr and 3 hr prior to the start of the reaction. 25 μM PIP2:PS and 60 μM ATP were diluted from stock in (25 mM HEPES pH 7.5, 1 mM EGTA, 0.3% CHAPS) and added to initiate the PI3Kα reaction. Reaction time was 30 minutes. ATP to ADP conversion was measured in Luminescence Counts on DTX880 Plate Reader (Beckman Coulter). Compound IC50s were reported using GraphPad Prism software. Analytical method was non-linear regression, 4-parameter curve fit with bottom fit to validated PI3Kα inhibitor reference controls and no top fit (floating top).
A general note: ADP-Glo turns the ADP formed in a reaction into a luminescent signal.
Turning to `CC(C)(C)C(=O)N1CC(S(=O)(=O)c2cc(-c3cnc(N)nc3)cc(N3CCOCC3)c2)C1` [Compound 86, 1-(3-((3-(2-aminopyrimidin-5-yl)-5-morpholinophenyl)sulfonyl)azetidin-1-yl)-2,2-dimethylpropan-1-one], the “PI3Ka IC50” value was 580 nM.
Regarding `CNc1ncc(-c2cc(N3CCOCC3)cc(S(=O)(=O)c3ccccc3)c2)cn1` [Compound 16, N-methyl-5-(3-morpholino-5-(phenylsulfonyl)phenyl)pyrimidin-2-amine], the “PI3Ka IC50” value was 1500 nM.
Consider `COc1nc(N)ccc1-c1cc(N2CCOCC2)cc(S(=O)(=O)Cc2ccc(F)cc2)c1` [Compound 44, 5-(3-((4-fluorobenzyl)sulfonyl)-5-morpholinophenyl)-6-methoxypyridin-2-amine], for which the “PI3Ka IC50” value amounted to 13000 nM.
For `COc1ccc(-c2cc(N3CCOCC3)cc(S(=O)(=O)Cc3ccc(F)cc3)c2)cc1N` [Compound 43, 3′-((4-fluorobenzyl)sulfonyl)-4-methoxy-5′-morpholino-[1,1′-biphenyl]-3-amine], the “PI3Ka IC50” value amounted to 11000 nM.
As for `COc1ncc(-c2cc(N3CCOCC3)cc(S(=O)(=O)c3ccccc3)c2)cn1` [Compound 2, 4-(3-(2-methoxypyrimidin-5-yl)-5-(phenylsulfonyl)phenyl)morpholine], the “PI3Ka IC50” value was found to be 5000 nM.
The same measure, in the same setting: for `Nc1ncc(-c2cc(N3CCOCC3)cc(S(=O)(=O)C3CNC3)c2)cn1` [Compound 61, 5-(3-(azetidin-3-ylsulfonyl)-5-morpholinophenyl)pyrimidin-2-amine] the value was 500 nM; for `Nc1ncc(-c2cc(N3CCOCC3)cc(S(=O)(=O)c3ccccc3)c2)c(C(F)(F)F)n1` [Compound 3, 5-(3-morpholino-5-(phenylsulfonyl)phenyl)-4-(trifluoromethyl)pyrimidin-2-amine], 2000 nM.
`COc1ccc(-c2cc(N3CCOCC3)cc(S(=O)(=O)c3ccccc3)c2)cn1` [Compound 5, 4-(3-(6-methoxypyridin-3-yl)-5-(phenylsulfonyl)phenyl)morpholine]: the “PI3Ka IC50” value was 12000 nM.
Regarding `Nc1ccc(-c2cc(N3CCOCC3)cc(S(=O)(=O)Cc3ccc(F)cc3F)c2)nc1` [Compound 98, -(3-((2,4-difluorobenzyl)sulfonyl)-5-morpholinophenyl)pyridin-3-amine], the “PI3Ka IC50” value amounted to 12000 nM.
The same measure, in the same setting: as for `Nc1ncc(-c2cc(N3CCOCC3)cc(S(=O)(=O)c3ccc(C(F)(F)F)cc3)c2)cn1` [Compound 14, 5-(3-morpholino-5-((4-(trifluoromethyl)phenyl)sulfonyl)phenyl) pyrimidin-2-amine], the figure is 7300 nM; as for `CC(C)(C)OC(=O)N1CC(S(=O)(=O)c2cc(-c3cnc(N)cn3)cc(N3CCOCC3)c2)C1` [Compound 69, tert-butyl 3-((3-(5-aminopyrazin-2-yl)-5-morpholinophenyl)sulfonyl)azetidine-1-carboxylate], 540 nM.
On to `Nc1ncc(-c2cc(N3CCOCC3)cc(S(=O)(=O)C3CN(C4CCOCC4)C3)c2)cn1` [Compound 66, 5-(3-morpholino-5-((1-(tetrahydro-2H-pyran-4-yl)azetidin-3-yl)sulfonyl)phenyl)pyrimidin-2-amine], for which the “PI3Ka IC50” value amounted to 1300 nM.
Regarding `O=S(=O)(c1ccccc1)c1cc(-c2cnc(NC3CC3)nc2)nc(N2CCOCC2)c1` [Compound 146, N-cyclopropyl-5-(6-morpholino-4-(phenylsulfonyl)pyridin-2-yl)pyrimidin-2-amine], the “PI3Ka IC50” value amounted to 370 nM.
As for `C[C@@H]1CC(S(=O)(=O)c2cc(-c3cnc(N)nc3)cc(N3CCOCC3)c2)C[C@H](C)O1` (stereo partly drawn) [Compound 85, 5-(3-(((2R,6S)-2,6-dimethyltetrahydro-2H-pyran-4-yl)sulfonyl)-5-morpholinophenyl)pyrimidin-2-amine], the “PI3Ka IC50” value stood at 1000 nM.
Consider `CC(C)N1CCC(S(=O)(=O)c2cc(-c3cnc(N)nc3)cc(N3CCOCC3)c2)C1.Cl` (centres unmarked) [Compound 89, 5-(3-((1-isopropylpyrrolidin-3-yl)sulfonyl)-5-morpholinophenyl)pyrimidin-2-amine hydrochloride], for which the “PI3Ka IC50” value amounted to 2500 nM.
With `Nc1cnc(-c2cc(N3CCOCC3)cc(S(=O)(=O)Cc3ccccc3)c2)cn1` [Compound 73, 5-(3-(benzylsulfonyl)-5-morpholinophenyl)pyrazin-2-amine], the “PI3Ka IC50” value is 1500 nM.
Same read-out and setting: for `CC(C)N1CCC(S(=O)(=O)c2cc(-c3cnc(N)nc3)cc(N3CCOCC3)c2)CC1` [Compound 90, 5-(3-((1-isopropylpiperidin-4-yl)sulfonyl)-5-morpholinophenyl)pyrimidin-2-amine] the value was 7220 nM; for `Cc1nc(N)ncc1-c1cc(N2CCOCC2)cc(S(=O)(=O)[C@@H]2CCOC2)c1` [Compound 121, (R)-4-methyl-5-(3-morpholino-5-((tetrahydrofuran-3-yl)sulfonyl)phenyl)pyrimidin-2-amine], 840 nM.
In the case of `O=C1COc2cc(-c3cc(N4CCOCC4)cc(S(=O)(=O)Cc4ccc(F)cc4)c3)ccc2N1` [Compound 42, 7-(3-((4-fluorobenzyl)sulfonyl)-5-morpholinophenyl)-2H-benzo[b][1,4]oxazin-3(4H)-one], the “PI3Ka IC50” value came to 4700 nM.
Consider `CC(C)(C)OC(=O)N1CCN(c2cc(-c3cnc(N)nc3)cc(S(=O)(=O)c3ccccc3)c2)CC1` [Compound 24, tert-butyl 4-(3-(2-aminopyrimidin-5-yl)-5-(phenylsulfonyl)phenyl)piperazine-1-carboxylate], for which the “PI3Ka IC50” value came to 21000 nM.
Consider `CC(C)(O)CNc1ccc(CS(=O)(=O)c2cc(-c3cnc(N)nc3)cc(N3CCOCC3)c2)cc1` [Compound 84, 1-((4-(((3-(2-aminopyrimidin-5-yl)-5-morpholinophenyl)sulfonyl)methyl)phenyl)amino)-2-methylpropan-2-ol], for which the “PI3Ka IC50” value was 600 nM.
On the same count and under the same terms, as for `Nc1ncc(-c2cc(C(=O)C3CCOC3)cc(N3CCOCC3)n2)cn1` (centres unmarked) [Compound 149, (2-(2-aminopyrimidin-5-yl)-6-morpholinopyridin-4-yl)(tetrahydrofuran-3-yl)methanone], the figure is 14 nM; as for `Nc1ncc(-c2cc(S(=O)(=O)C3COc4ccccc43)cc(N3CCOCC3)n2)cn1` (centres unmarked) [Compound 147, 5-(4-((2,3-dihydrobenzofuran-3-yl)sulfonyl)-6-morpholinopyridin-2-yl)pyrimidin-2-amine], 7 nM; as for `Nc1cnc(-c2cc(N3CCOCC3)cc(S(=O)(=O)C3CCOC3)c2)cn1` (centres unmarked) [Compound 74, 5-(3-morpholino-5-((tetrahydrofuran-3-yl)sulfonyl)phenyl)pyrazin-2-amine], 1000 nM.
For `CC(C)N1CC(S(=O)(=O)c2cc(-c3cnc(N)nc3)cc(N3CCOCC3)c2)C1` [Compound 65, 5-(3-((1-isopropylazetidin-3-yl)sulfonyl)-5-morpholinophenyl)pyrimidin-2-amine], the “PI3Ka IC50” value worked out at 870 nM.
For `Nc1ncc(-c2cc(S(=O)(=O)[C@@H]3CCOC3)cc(N3CCOCC3)n2)cn1` [Compound 142b, (R)-5-(6-morpholino-4-((tetrahydrofuran-3-yl)sulfonyl)pyridin-2-yl)pyrimidin-2-amine], the “PI3Ka IC50” value was 6.8 nM.
`Nc1ncc(-c2cc(N3CCOCC3)cc(S(=O)(=O)Cc3ccccc3)c2)c(C(F)(F)F)n1` [Compound 33, 5-(3-(benzylsulfonyl)-5-morpholinophenyl)-4-(trifluoromethyl)pyrimidin-2-amine]: the “PI3Ka IC50” value amounted to 980 nM.
Still for that read-out and setting: for `Nc1ncc(-c2cc(N3CCCCC3)cc(S(=O)(=O)c3ccccc3)c2)cn1` [Compound 25, 5-(3-(phenylsulfonyl)-5-(piperidin-1-yl)phenyl)pyrimidin-2-amine] the value was 30000 nM; for `Nc1cc(C(F)(F)F)c(-c2cc(N3CCOCC3)cc(S(=O)(=O)c3ccccc3)c2)cn1` [Compound 6, 5-(3-morpholino-5-(phenylsulfonyl)phenyl)-4-(trifluoromethyl)pyridin-2-amine], 3800 nM.
As to `CCNC(=O)Nc1ccc(-c2cc(N3CCOCC3)cc(S(=O)(=O)Cc3ccc(F)cc3)c2)cc1OC` [Compound 40, 1-ethyl-3-(3′-((4-fluorobenzyl)sulfonyl)-3-methoxy-5′-morpholino-[1,1′-biphenyl]-4-yl)urea], the “PI3Ka IC50” value was 6500 nM.
On the same count and under the same terms, for `Nc1ncc(-c2cc(C3CCOc4ccccc43)cc(N3CCOCC3)n2)cn1` (centres unmarked) [Compound 141, 5-(4-(chroman-4-yl)-6-morpholinopyridin-2-yl)pyrimidin-2-amine] the value was 62 nM.

The same test, now with this note: 25 μM PIP2:PS, 60 μM ATP, 30 min reaction, luminescence; read-out: PI3Ka IC50.
For `Nc1ncc(-c2cc(S(=O)(=O)C3CCOc4ccccc43)cc(N3CCOCC3)n2)cn1` (single isomer, unassigned; (+)) [(+) 143, 5-(4-(chroman-4-ylsulfonyl)-6-morpholinopyridin-2-yl)pyrimidin-2-amine], the IC50 was found to be 4.5 nM.
